This assay concerns B16 melanoma F10 cells. The assay is described as follows: Metastatic spread of B16-F10 melanoma cells to the lungs of C57/BL mice. The assay is classed as in vivo. How it is done: To confirm the anti-metastatic activity of the proteinaceous substances of this invention, 1×10^5 viable B16 melanoma F10 line cells were injected i.v. through the tail vein of C57/BL mice. The antimetastatic factor was then administered i.v. at -2, +2, +4 and +6 hours relative to the tumor innoculum at t=0 hours. At the end of 15 days, the animals were sacrificed and the number of metastatic foci in the lungs were quantitated. The results observed are summarized in Table 1 below, with n indicating the number of animals used in the test.
B16 melanoma F10 cells (1 × 10^5 cells/animal) were injected i.v.
into the tail vein of C57/Bl mice on day 0. Vehicle: 10 mM Hepes, 0.15M
NaCl, pH 7.4 containing 10 mg/ml BSA; recombinantHirudin (25 antithrombin
units) and FXa inhibitor (1-2 μg) were injected into the mice i.v. at
-2, +2, +4, +6 hrs. after tumor cell innoculation. The animals were
sacrificed at 14 days post tumor cell innoculation. The lungs were
dissected, fixed, and the number of pulmonary metas tases were determined
under a dissecting microscope. […]

[1] abbreviates: Table 1, recombinant hirudin 25 antithrombin units or FXa inhibitor 1-2 μg i.v. at -2, +2, +4, +6 hrs, versus vehicle control.

As for Hirudin, where the note is “Table 1, lungs, recombinant hirudin 25 antithrombin units or FXa inhibitor 1-2 μg i.v. at -2, +2, +4, +6 hrs, 14 days post innoculation”, the “No. of Metastatic Foci (Mean + S.E.; n = 6)” value is on record as 198 ± 10. Under setting [1], the “% Inhibition (metastatic foci)” value was found to be 0% and the “% Potentiation (metastatic foci)” value is given as 21%. Further, the “Effect on metastasis (in words)” value (administered -2, +2, +4 and +6 hours relative to tumor cell innoculation) is given as “caused a moderate increase in metastatic foci”.

For the origin of these results see US5447911A, “Ghilanten antimetastatic principle from the south american leech, Haementeria ghilianii” (Merrell Dow Pharmaceuticals Inc., priority 1994, dated 1995).
